In patent publication US20220282304A1, “SAME-SAMPLE ANTIBIOTIC SUSCEPTIBILITY TEST AND RELATED COMPOSITIONS, METHODS AND SYSTEMS” (CALIFORNIA INSTITUTE OF TECHNOLOGY, priority 2021, published 2022):

Legend:
[1] = tested on: Escherichia coli isolate B; assay: Same-sample filtration AST, replicate treated and concurrent reference conditions (Example 3), isolate B; format: cell-based; conditions: 1 μg/mL ETP, 60 minutes 37° C.
Description: Isolate A was susceptible to ertapenem, while isolate B was resistant. The inoculum was small enough that no detectable difference in the sample's optical density at 600 mm (OD600) was detectable before and after inoculation by an Ultrospec 10 spectrophotometer with an analytical sensitivity of 0.01 absorbance units. After an incubation at 37° C., the media became turbid with an OD600 of 0.5 absorbance units after about 2 hours of incubation.
To begin the AST protocol, 23.75 μL of the above 8 bacteria batch culture dilutions was twice added to and mixed with 1.25 μL of water containing either 20 μg/mL or 0 μg/mL of dissolved ertapenem (ETP) antibiotic. As a result, […] at 1 μg/mL were created, and 8 untreated reference conditions were created (see Table 2 below). The […] were incubated at 37° C. for 60 minutes.
After 60 minutes of incubation, the entire volume of each antibiotic exposure was transferred to an individual cellulose acetate filter unit with a 0.2 μm pore size. […]
50 μL of fresh MHB media was spun through the filters after the first centrifugation (above) to wash away residual extracellular nucleic acids present in the fluid wetting the filters. […] In this experiment, the wash fluid was collected and analyzed to learn more about the protocol, but this washing step is not necessary for determining susceptibility of the isolate. […]

[2] = tested on: carbapenem-resistant Escherichia coli isolate; assay: Digital same-sample filtration AST, one treated and one concurrent reference condition (Example 6); format: cell-based
Description: The inoculum was small enough that no detectable difference in the sample's optical density at 600 mm (OD600) was detectable by a spectrophotometer with a sensitivity of 0.01 absorbance units. The OD600 of the culture measured every 30 minutes after the culture was incubated at 37° C. to calculate the doubling time of the strain. The media became turbid with an OD600 of 0.28 absorbance units after 3.1 hours of incubation.
In this experiment, the number and volume of sample partitions was restricted, for logistical reasons, to 96 partitions 10 μL, in volume, specifically the wells of a 96-well plate. A goal was chosen of having a >98% chance of ending up with at least 48 empty partitions. When all partitions are the same volume, the following formula relates the expected number of empty partitions, the partition volume, and the density of cells.
N is the total number of partitions, n is the number of empty partitions, V is the partition volume, D is the density of cells, and t is a threshold probability chosen by the practitioner. Thus, in order to achieve digital sample partitioning with the available 96-well plate, the contrived clinical specimen was diluted to a cell density of 0.0375 cells/μL. Each 10 μL sample of the specimen would then contain 0.375 cells on average.
To begin the AST protocol, the contrived clinical sample was physically split into the 96 partitions by transferring 10 μL of the sample, in 96 separate transfers (actually 12 transfers with a multichannel pipette), to 96 wells of a microtiter plate. Each well contained 15 μL of Mueller-Hinton Broth (MHB) growth media. Half of the wells (48) contained 0 μg/mL of dissolved ETP antibiotic and served as reference condition antibiotic exposures. The other half of the wells contained 1.67 μg/mL of ETP (for a final concentration of 1.0 μg/mL) and served as 48 treated condition antibiotic exposures.
The 96 antibiotic exposures were incubated at 37° C. for 40 minutes.
The entire volume of each antibiotic exposure was transferred to a Millipore® 96-well sterile polystyrene MultiScreenHTS® filter plate (Millipore-Sigma MSGVS2210). Each well of the filter plate contained a hydrophilic polyvinylidene fluoride (PVDF) filter membrane with a 0.22 μm pore size. The antibiotic exposures were centrifuged at 2200 relative centrifugal force to speed the passage of the antibiotic exposure through the filter and into 96 collecting vessels. The collected fluid was called the “filtrate.” It is expected that the filtrate will contain all or most of the extracellular nucleic acids present in the antibiotic exposure, but none of the intracellular nucleic acids in the antibiotic exposure.
50 μL of fresh MHB media was spun through the filters after the first centrifugation (above) to wash away residual extracellular nucleic acids present in the fluid wetting the filters. This wash fluid is not collected with the filtrates.
10 μL of each of the filtrates was added to and mixed with 10 μL of Lucigen DNA Extraction Buffer, heated to 65° C. for 6 minutes, then heated to 98° C. for 4 minutes to create extracted filtrates.
20 μL of DNA Extraction Buffer was placed into all of the wells of the filter plate, on top of the filters. The filter plate was heated to 65° C. for 6 minutes, shaking at 700 rpm, on a ThermoMixer® flat surface heating block. Then, the filter plate was taped to a clean 96-well polypropylene microtiter plate and centrifuged at 2000 rcf for 2 minutes. The DNA Extraction Buffer fluid that flowed through the filter was collected in the microtiter plate below the filter plate. Next, the microtiter plate was heated to 98° C. for 4 minutes inside a BioRad thermocycler. These collected and heated fluid volumes are termed the “extracted lysate”. […]

[3] = 1.0 μg/mL ETP, 40 minutes, assuming exponential division, doubling time approximately 30 minutes
[4] = 1.0 μg/mL ETP, 40 minutes, simple estimate
[5] = Treated 1.0 μg ETP, 40 minutes 37° C., 48 partitions, ddPCR

C[C@@H](O)[C@H]1C(=O)N2C(C(=O)O)=C(S[C@@H]3CN[C@H](C(=O)Nc4cccc(C(=O)O)c4)C3)[C@H](C)[C@H]12 [ETP, ertapenem]
susceptibility call (threshold: reference mean + 2 SD of fraction extracellular) ([1]; alternative analysis): resistant | susceptibility call (t-test treated vs untreated percent extracellular) ([1]; ddPCR 23S rRNA): resistant | treated EINAPV (fraction extracellular), alternative estimate ([2]; 1.0 μg/mL ETP, 40 minutes, alternative cell estimate, reference EINAPV 1/6): 1/7 | intact cells in treated condition (alternative estimate) [2, 3]: 6 | killed cells in treated condition (alternative estimate) [2, 3]: 1 | susceptibility call ([2]; 1.0 μg/mL ETP, 40 minutes, p-value vs 0.05 threshold): resistant | intact cells in treated condition at time of filtration (estimate) [2, 4]: 3 | killed cells in treated condition at time of filtration (estimate) [2, 4]: 1 | treated EINAPV (fraction extracellular) ([2]; 1.0 μg/mL ETP, 40 minutes, simple estimate, reference EINAPV 1/4): 1/4 | Both (number of wells) [2, 5]: 0 | Empty (number of wells) [2, 5]: 44 | Extracellular only (number of wells) [2, 5]: 1 | Intracellular only (number of wells) [2, 5]: 3
